Source: patent US20220281860A1, “COMPOUNDS AND METHODS OF TREATING RNA-MEDIATED DISEASES” (Arrakis Therapeutics, Inc., priority 2016, published 2022)

System: RNA3WJ_0.0.0_5IB_3FAM
Assay: Ligand observed NMR binding assay (WaterLOGSY, STD)
Settings: 10 μM RNA3WJ_0.0.0_5IB_3FAM +/− 200 compound
Method: Purpose: Test direct binding of compounds for RNA three way junction (3WJ). This ligand observed NMR assay is used to test direct binding of compounds to an RNA target, for example a 38 nt synthetic RNA 3WJ and others as described below. Ligand observed assay was used for hit validation studies of single compounds. Established experiments were eventually used to perform group epitope mapping, described below.
Sample buffer: 10 mM Cacodylate, pH 7.1; 0.68 g [MW: 137.99 g/mol]; fill up to 500 ml with Millipore H2O.
Compound Stocks: Tool compounds provided as dry powder were prepared as 50 mM stock solution in 100% d6-DMSO. […]
Proton 900 pulse is determined and water resonance frequency is adjusted to ensure maximal water suppression. The determined values are transferred to the NMR experiments that will be recorded for the respective sample. […]
Python scripts are used to process all recorded spectra in the assay setup, screening and deconvolution process.
Spectra were analyzed for direct binding signals of the compounds. […]
ARK0000013 was also tested in the NMR binding assay. Test Sample: 10 μM RNA3WJ_0.0.0_5IB_3FAM+/−200 Ark000013. ^1H 1D Watergate & WaterLOGSY spectra recorded of Ark000013 were used as a reference (Note: aromatic signals observed between 7.4-7.9 ppm and due to symmetry of the center triptycene scaffold all 9 protons are magnetically equivalent).

CN(CCCN)CCCNC(=O)c1ccc2c(c1)C1c3cc(C(=O)NCCCN(C)CCCN)ccc3C2c2ccc(C(=O)NCCCN(C)CCCN)cc21 [Ark0000013, N^2,N^7,N^15-tris(3-((3-aminopropyl)(methyl)amino)propyl)-9,10-dihydro-9,10-[1,2]benzenoanthracene-2,7,15-tricarboxamide]
STD signals: small signals that were sufficient to qualitatively confirm binding
